A short description of assay [1]: Titration of cysteine with GSAO, DTNB assay. The class given is binding. Conditions: cysteine 28 μM, GSAO 0-50 μM, 10 minutes. Here is the method:
FIG. 11. Titration of DMP or cysteine with GSAO. DMP (15 ? M corresponding to 30 μM thiols) or cysteine (28 μM) was incubated with GSAO (0-50 μM) for 10 minutes. DTNB (950 μM) was then added and the reactions incubated for a further 10 minutes. The concentration of thiol in the reactions was determined from the absorbance of the TNB dianion at 412 nm.
A stock solution of DMP (5 μL, 50 μmol) was dissolved in DMSO (995 μL), giving a concentration of 50 mM DMP, A second dilution of the 50 mM DMP stock solution (10 μL) in pH 7.0 buffer (0.1 M HEPES, 0.3 M NaCl, 1 mM EDTA) (990 μL) gave a working solution of 500 ? M DMP. The activity of the arsenical could then be determined by the titration of varying amounts of arsenical against the DMP working solution (10 μL) in a 96-well microtitre plate, with the total volume made up to 195 μL by addition of buffer. After a 10 minute incubation at room temperature, during which time the solutions were agitated on a plate shaker, 5 μL of a 37.9 mM stock solution of DTNB (15 mg) in DMSO (1 mL) was added, and the plate incubated with shaking for another 10 minutes. The absorbance at 412 nm due to the formation of the TNB dianion was measured using a Molecular Devices Thermomax Plus (Palo Alto, Calif.) microplate reader. The extinction coefficient for the TNB dianion at pH 7.0 is 14, 150 M^−1cm^−1 at 412 nm (Riddles et al., 1983).

For assay [2], the system named is BxPC-3 tumours. As to the kind of experiment: Histological analysis of BxPC-3 tumours (CD-31, PCNA, TUNEL). The class given is in vivo, SCID mice. Conditions: for necrosis of treated tumours: not shown. Here is the method: FIG. 26. Inhibition of angiogenesis in human pancreatic tumours by GSAO. Histological sections of the BxPC-3 tumours shown in part C of FIG. 23 from GSAA and GSAO-treated mice were analysed for angiogenesis (CD-31), proliferation (PCNA) and apoptosis (TUNEL).
The tumours shown in FIG. 23C were fixed in Buffered Formalde-Fresh (Fisher Scientific, Fair Lawn, N.J.), embedded in paraffin and […] sections were cut and placed on glass slides. Sections were stained with haematoxylin and eosin or for CD31, PCNA or fragmented DNA (TUNEL). Sections were incubated overnight at 4° C. with a […] of anti-mouse CD-31 antibody (PharMingen, San Diego, Calif.) followed by a 1:200 dilution of biotinylated anti-rat secondary antibody (Vestor, Burlingame, Calif.). The staining was enhanced by tyramide amplification (New England Nuclear, Boston, Mass.). Staining for PCNA was performed as described by Holmgren et al. (1995) while TUNEL labeling of fragmented DNA was performed according to Gavrielli et al. (1992).
Vascular density was determined by selecting 3 tumours, including the smallest and largest, from the control and treatment groups. […] The highest of the three counts was the value taken and two sections from each tumour was examined. The proliferative index was estimated by the percentage of cells scored under 400× magnification (Holmgren et al., 1995). A minimum of 1000 cells was counted in two separate sections. The apoptotic index was estimated by the percentage of cells scored under 400× magnification. A minimum of 1500 cells was counted in two separate sections (Holmgren et al., 1995).

The subject of assay [3] is 3T3. Kind of assay: Proliferation of cultured cells, 72 hr. The class given is cell-based, murine. Conditions: 5% FCS, 0 to 1 mM. The procedure: (§1) FIG. 19. Effect of GSAO on proliferation of non-endothelial cells. 15,000 BxPC-3 (part A), HT1080 (part B), 3T3 (part C) or BVSM (part D) cells per well were seeded into gelatinised 24-well culture plates and allowed to attach for 24 hr. The media was then replaced with DMEM containing 0 to 1 mM GSAO or GSAA and either 5% BCS (part D) or 5% FCS (parts A, B and C). Cells were cultured for 72 hr and then dispersed and counted. The dotted lines indicate the cell number in control wells containing DMEM and 2% BCS (part D) or 2% FCS (parts A, B and C) which represented no to limited proliferation. The data points and errors represent the mean and range of duplicate wells.
(§2) BCE (Folkman et al. 1979), BAE, BxPC-3 (ATCC, Bethesda, Md.), HT1080 (Jiang et al., 1999), 3T3 (ATCC, Bethesda, Md.) and BVSM (Hogg et al., 1997) cells were harvested and cultured as indicated. […] Cells were cultured for 0 to 72 hr in 10% CO2 at 37° C. then dispersed in trypsin/EDTA (GibcoBRL, Granc Island, N.Y.), resuspended in Coulter balanced electrolyte solution and counted with a Z1 Coulter counter (Coulter Corp., Miami, Fla.) in all experiments there were two control wells containing DMEM with 1% GPS and either 5% BCS for BCE cells, 2% BCS for BAE and BVSM cells, or 2% FCS for BxPC-3, HT1080 and 3T3 cells. […]

Assay [4] deals with BVSM. As to the kind of experiment: Proliferation of cultured cells, 72 hr. The class given is cell-based, bovine. The note with it: 5% BCS, 0 to 1 mM. The procedure: as §1, §2

Entries after “also recorded” stand apart in the source; their conditions may differ.

Regarding `NC(CCC(=O)NC(CSCC(=O)Nc1ccc([As]=O)cc1)C(=O)NCC(=O)O)C(=O)O` (stereo not shown) [GSAO, 4-(N-(S-glutathionylacetyl)amino)-phenylarsenoxide], in assay [1], the “interaction with cysteine in DTNB titration” value was “any interaction of GSAO with cysteine was displaced by DTNB”. Besides, the “proliferative index of tumour cells (PCNA)” value in assay [2] (GSAO- vs GSAA-treated) is “no significant difference”. In addition, the “tumour angiogenesis (CD-31)” value in assay [2] (GSAO- vs GSAA-treated, 10 mg per kg per day, day 31, p<0.001) is “marked suppression of angiogenesis; also recorded: marked reduction in angiogenesis”. In assay [2] (GSAO- vs GSAA-treated, p=0.05), the “apoptotic index of tumour cells (TUNEL)” value is “increase in the apoptotic index”. The “necrosis of treated tumours” value in assay [2] is “no macroscopic or microscopic signs of necrosis”. For the same compound, the results for the “Proliferation IC50” value in assay [3] and in assay [4] were “did not affect the proliferation; also recorded: No effect” and “did not affect the proliferation”, respectively.
Regarding `N[C@@H](CCC(=O)N[C@@H](CSCC(=O)Nc1ccc([As](=O)(O)O)cc1)C(=O)NCC(=O)O)C(=O)O` [GSAA, 4-(N-(S-glutathionylacetyl)amino)phenylarsonic acid, reference compound], the “necrosis of treated tumours” value in assay [2] is reported as “no macroscopic or microscopic signs of necrosis”. Further, the “Proliferation IC50” value in assay [3] and in assay [4] was “no significant effect” throughout.

The values are drawn from patent US7498406B2, “Substantially cell membrane impermeable compound and use thereof” (priority 1999, dated 2009).
